Experimental data from ChEMBL document CHEMBL5465560, “Selectivity Literature for EUbOPEN Chemogenomic Library” (2024).

Experiments:
[1] = target: KCNE1 (Homo sapiens, UniProt P15382); assay: Selectivity interaction (Panel of kinases, GPCRs, ion channels and transporters (enzymatic assay)) EUB0000266bCl KCNE1
[2] = target: Insulin-like growth factor 1 receptor (Homo sapiens, UniProt P08069); assay: Selectivity interaction (Ambit KINOMEscan and KiNATiv profiling in Jurkat cells) EUB0000090b IGF1R; type: cell-based; conditions: at 1 µM
[3] = target: LIM domain kinase 2 (Homo sapiens) (UniProt P53671); assay: Selectivity interaction (Ambit KINOMEscan and KiNATiv profiling in Jurkat cells) EUB0000090b LIMK2; type: cell-based; conditions: at 1 µM
[4] = target: T1, Phosphatidylinositol 5-phosphate 4-kinase type-2 gamma (Homo sapiens) (UniProt Q8TBX8); assay: Selectivity interaction (ActivX KiNativ screen (kinase selectivity in THP-1 cell lysates)) EUB0000639a PIP4K2C; type: subcellular; conditions: lysate, at 1 µM
T1 sequence (whole entry): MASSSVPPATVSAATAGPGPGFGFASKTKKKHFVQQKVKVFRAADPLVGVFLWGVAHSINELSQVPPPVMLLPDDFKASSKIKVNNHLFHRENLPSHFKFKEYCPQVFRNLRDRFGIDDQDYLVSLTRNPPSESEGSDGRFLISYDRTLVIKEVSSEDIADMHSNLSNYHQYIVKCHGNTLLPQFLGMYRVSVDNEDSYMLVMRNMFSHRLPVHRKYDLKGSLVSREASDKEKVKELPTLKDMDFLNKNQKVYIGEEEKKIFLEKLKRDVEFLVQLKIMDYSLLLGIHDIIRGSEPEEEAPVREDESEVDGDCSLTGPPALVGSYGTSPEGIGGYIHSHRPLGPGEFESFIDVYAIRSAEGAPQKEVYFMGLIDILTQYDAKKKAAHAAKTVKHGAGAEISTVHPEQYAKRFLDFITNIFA

[5] = target: Leucine-rich repeat serine/threonine-protein kinase 2 (Homo sapiens, UniProt Q5S007); assay: Selectivity interaction (Enzymatic assay) EUB0001632a LRRK2
[6] = test system: Mast/stem cell growth factor receptor Kit (Homo sapiens), P10721 [A829P]; assay: (§1) Selectivity interaction (KinomeScan (DiscoverX)) EUB0000695a KIT; conditions: at 100 nM
[7] = test system: Mast/stem cell growth factor receptor Kit (Homo sapiens), P10721 [D816H]; assay: as §1; conditions: at 100 nM
[8] = test system: Mast/stem cell growth factor receptor Kit (Homo sapiens), P10721 [D816V]; assay: as §1; conditions: at 100 nM
[9] = test system: Mast/stem cell growth factor receptor Kit (Homo sapiens), P10721 [L576P]; assay: as §1; conditions: at 100 nM
[10] = test system: Mast/stem cell growth factor receptor Kit (Homo sapiens), P10721 [V559D,T670I]; assay: as §1; conditions: at 100 nM
[11] = test system: Mast/stem cell growth factor receptor Kit (Homo sapiens), P10721 [V559D,V654A]; assay: as §1; conditions: at 100 nM
[12] = test system: Mast/stem cell growth factor receptor Kit (Homo sapiens), P10721 [V559D]; assay: as §1; conditions: at 100 nM
[13] = target: Mast/stem cell growth factor receptor Kit (Homo sapiens, UniProt P10721); assay: as §1; conditions: at 100 nM
[14] = target: Cyclin-dependent kinase 14 (Homo sapiens) (UniProt O94921); assay: Selectivity interaction (KinomeScan (DiscoverX)) EUB0001079a CDK14; conditions: at 1 µM
[15] = target: Kappa-type opioid receptor (Homo sapiens, UniProt P41145); assay: Selectivity interaction (GPCR panel (PDSP screen)) EUB0001079a OPRK1; conditions: at 10 µM
[16] = target: Calcium/calmodulin-dependent protein kinase type II subunit gamma (Homo sapiens) (UniProt Q13555); assay: Selectivity interaction (KinomeScan (DiscoverX)) EUB0000045b CAMK2G
[17] = target: 4-aminobutyrate aminotransferase, mitochondrial (Homo sapiens, UniProt P80404); assay: Selectivity interaction (GPCR panel (PDSP screen)) EUB0000311b ABAT
[18] = target: Cyclin-dependent kinase 9 (Homo sapiens, UniProt P50750); assay: Selectivity interaction (KinomeScan (DiscoverX)) EUB0001619a CDK9; conditions: at 1 µM
[19] = target: T2, Serine/threonine-protein kinase LATS2 (Homo sapiens) (UniProt Q9NRM7); assay: Selectivity interaction (KinomeScan (DiscoverX)) EUB0001619a LATS2; conditions: at 1 µM
T2 sequence (whole entry): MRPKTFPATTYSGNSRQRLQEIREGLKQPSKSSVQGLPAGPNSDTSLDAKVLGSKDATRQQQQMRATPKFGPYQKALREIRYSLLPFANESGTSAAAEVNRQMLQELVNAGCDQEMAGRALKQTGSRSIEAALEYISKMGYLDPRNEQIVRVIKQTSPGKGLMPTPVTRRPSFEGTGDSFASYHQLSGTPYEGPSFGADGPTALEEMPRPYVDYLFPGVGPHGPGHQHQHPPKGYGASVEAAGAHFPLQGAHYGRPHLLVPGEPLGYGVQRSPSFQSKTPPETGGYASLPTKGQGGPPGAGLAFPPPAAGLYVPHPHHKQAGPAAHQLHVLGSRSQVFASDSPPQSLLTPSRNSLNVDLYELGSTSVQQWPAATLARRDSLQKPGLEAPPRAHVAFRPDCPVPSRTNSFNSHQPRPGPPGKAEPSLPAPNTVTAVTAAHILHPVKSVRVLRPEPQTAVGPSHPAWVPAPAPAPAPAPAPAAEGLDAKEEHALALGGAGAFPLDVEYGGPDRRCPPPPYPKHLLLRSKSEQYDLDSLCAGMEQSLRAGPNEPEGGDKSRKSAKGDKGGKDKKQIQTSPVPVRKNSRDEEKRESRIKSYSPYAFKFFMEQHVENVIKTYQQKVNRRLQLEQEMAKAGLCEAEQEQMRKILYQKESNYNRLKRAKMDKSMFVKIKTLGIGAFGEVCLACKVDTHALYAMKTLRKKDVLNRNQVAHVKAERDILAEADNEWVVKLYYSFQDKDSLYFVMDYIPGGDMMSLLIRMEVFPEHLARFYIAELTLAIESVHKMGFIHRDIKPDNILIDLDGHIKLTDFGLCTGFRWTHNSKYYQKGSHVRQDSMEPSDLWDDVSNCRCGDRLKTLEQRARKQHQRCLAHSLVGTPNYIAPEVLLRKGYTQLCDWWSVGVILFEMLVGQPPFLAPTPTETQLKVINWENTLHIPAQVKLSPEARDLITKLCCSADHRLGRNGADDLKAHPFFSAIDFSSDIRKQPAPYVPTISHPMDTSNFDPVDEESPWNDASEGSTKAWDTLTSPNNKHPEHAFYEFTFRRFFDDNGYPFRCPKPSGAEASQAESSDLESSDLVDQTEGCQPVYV

[20] = target: Ribosomal protein S6 kinase alpha-5 (Homo sapiens) (UniProt O75582); assay: Selectivity interaction (KinomeScan (DiscoverX)) EUB0000607a RPS6KA5; conditions: at 10 µM
[21] = target: Serine/threonine-protein kinase PLK2 (Homo sapiens, UniProt Q9NYY3); assay: Selectivity interaction (KinomeScan (DiscoverX)) EUB0000666a PLK2; conditions: at 10 µM
[22] = target: Proto-oncogene tyrosine-protein kinase Src (Homo sapiens, UniProt P12931); assay: Selectivity interaction (KinomeScan (DiscoverX)) EUB0000666a SRC; conditions: at 10 µM

Chain of Calcium/calmodulin-dependent protein kinase type II subunit gamma (Homo sapiens) (Q13555 whole entry): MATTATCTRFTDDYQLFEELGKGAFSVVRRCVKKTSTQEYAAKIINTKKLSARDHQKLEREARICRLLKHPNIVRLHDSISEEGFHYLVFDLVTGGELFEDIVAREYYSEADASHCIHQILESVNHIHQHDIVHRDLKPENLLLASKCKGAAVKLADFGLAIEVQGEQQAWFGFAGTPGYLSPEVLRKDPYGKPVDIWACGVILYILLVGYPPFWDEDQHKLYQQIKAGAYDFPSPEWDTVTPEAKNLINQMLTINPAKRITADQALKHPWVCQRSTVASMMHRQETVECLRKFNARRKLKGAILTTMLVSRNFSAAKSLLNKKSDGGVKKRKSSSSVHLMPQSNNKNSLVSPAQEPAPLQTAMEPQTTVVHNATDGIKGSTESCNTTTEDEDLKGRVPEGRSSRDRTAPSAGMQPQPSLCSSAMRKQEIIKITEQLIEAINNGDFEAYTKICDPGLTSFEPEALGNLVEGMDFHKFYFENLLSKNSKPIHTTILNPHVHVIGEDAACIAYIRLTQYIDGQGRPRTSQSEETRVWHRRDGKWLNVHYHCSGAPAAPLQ
Chain of Mast/stem cell growth factor receptor Kit (Homo sapiens), P10721 [V559D] (P10721 whole entry V559D): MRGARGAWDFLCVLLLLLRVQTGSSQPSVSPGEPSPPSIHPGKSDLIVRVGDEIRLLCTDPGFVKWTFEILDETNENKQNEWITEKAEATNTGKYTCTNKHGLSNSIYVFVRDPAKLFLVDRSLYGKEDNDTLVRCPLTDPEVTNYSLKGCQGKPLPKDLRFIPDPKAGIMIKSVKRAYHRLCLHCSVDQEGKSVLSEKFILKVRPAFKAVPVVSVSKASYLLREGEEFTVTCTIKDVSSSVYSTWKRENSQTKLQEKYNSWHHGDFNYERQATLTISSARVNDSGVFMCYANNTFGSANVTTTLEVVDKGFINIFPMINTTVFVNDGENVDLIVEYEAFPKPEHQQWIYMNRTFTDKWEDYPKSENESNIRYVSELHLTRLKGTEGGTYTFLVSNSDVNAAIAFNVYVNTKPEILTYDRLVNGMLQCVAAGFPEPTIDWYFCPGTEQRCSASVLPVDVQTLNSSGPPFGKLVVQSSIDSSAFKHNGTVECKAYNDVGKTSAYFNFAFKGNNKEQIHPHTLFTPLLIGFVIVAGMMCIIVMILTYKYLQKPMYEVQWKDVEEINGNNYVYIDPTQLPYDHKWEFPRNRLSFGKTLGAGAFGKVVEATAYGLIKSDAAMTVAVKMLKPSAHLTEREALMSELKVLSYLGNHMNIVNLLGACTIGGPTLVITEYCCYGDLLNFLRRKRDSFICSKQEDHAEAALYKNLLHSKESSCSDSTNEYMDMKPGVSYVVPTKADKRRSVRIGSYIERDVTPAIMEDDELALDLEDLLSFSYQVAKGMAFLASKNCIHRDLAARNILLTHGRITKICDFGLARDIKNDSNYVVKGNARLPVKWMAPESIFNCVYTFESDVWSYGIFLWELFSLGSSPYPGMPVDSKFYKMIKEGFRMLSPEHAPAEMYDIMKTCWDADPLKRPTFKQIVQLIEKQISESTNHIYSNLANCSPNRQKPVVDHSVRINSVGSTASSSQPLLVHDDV
Chain of Mast/stem cell growth factor receptor Kit (Homo sapiens), P10721 [D816H] (P10721 whole entry D816H): as the sequence (P10721 whole entry V559D) above, with D559V, D816H counted along it
Chain of Mast/stem cell growth factor receptor Kit (P10721 whole entry): as the sequence (P10721 whole entry V559D) above, with D559V counted along it
Chain of Mast/stem cell growth factor receptor Kit (Homo sapiens), P10721 [V559D,V654A] (P10721 whole entry V559D/V654A): as the sequence (P10721 whole entry V559D) above, with V654A counted along it
Chain of Cyclin-dependent kinase 9 (P50750 whole entry): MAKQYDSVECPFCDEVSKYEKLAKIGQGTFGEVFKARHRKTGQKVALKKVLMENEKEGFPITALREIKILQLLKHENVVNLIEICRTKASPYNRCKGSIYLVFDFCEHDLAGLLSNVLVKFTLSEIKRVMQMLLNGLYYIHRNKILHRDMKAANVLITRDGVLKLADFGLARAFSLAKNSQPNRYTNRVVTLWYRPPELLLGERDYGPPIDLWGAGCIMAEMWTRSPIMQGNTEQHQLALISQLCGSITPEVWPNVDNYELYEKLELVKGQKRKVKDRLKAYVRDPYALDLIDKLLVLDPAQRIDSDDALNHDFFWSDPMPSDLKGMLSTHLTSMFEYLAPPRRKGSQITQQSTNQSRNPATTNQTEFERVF

`CCn1c(-c2nc3cc(C(=O)N4CCCC(N)C4)ccc3n2C)cc2ccccc21` (stereo not drawn) was tested, and the XC50 [1] was > 25.1 µM.
In the case of `CN(C)C/C=C/C(=O)Nc1ccc(C(=O)N2CCCC(Nc3ncc(Cl)c(-c4c[nH]c5ccccc45)n3)C2)cc1` (stereo not drawn), the % of control [2] is reported as 91% and the % of control [3] is reported as 95%.
With `CC[C@@H]1[C@H](F)C(=O)N[C@@H]1COc1nccc2cc(C(N)=O)c(OC)cc12` [ZIMLOVISERTIB] the % of inhibition [4] was 76.4%.
For `Cn1cc(-n2cnc3c(NCc4nc5cc(Cl)c(Cl)cc5[nH]4)nc(N4CCOCC4)nc32)cn1`, the IC50 [5] was > 10 µM.
`Cc1cc(F)c(C(=O)Nc2cccc(-c3nncn3C(C)C)n2)cc1-n1cnc(C2CC2)c1` was tested, and the % of control [6] was 82%, the % of control [7] was 79% and the % of control [8] was 84%. It also gave a % of control [9] of 94%, a % of control [10] of 100% and a % of control [11] of 100%. The % of control [12] was 92% and the % of control [13] was 89%.
Compound `Nc1cnc(N2CCc3cc(S(=O)(=O)Nc4c(F)cc(Cl)cc4F)cc(N4CCCC4=O)c32)nc1` [TP-020n] has a % of control [14] of 100% and a % of inhibition [15] of 14.9%.
`C=CC(=O)Nc1cc(-n2c(=O)ccc3cnc4ccc(-c5ccc(NS(C)(=O)=O)cc5)cc4c32)ccc1C` was tested, and the % of control ([16]; at 1 µM) was 100% and the % of control ([16]; at 10 µM) was 96%.
`CCc1ccccc1C(=O)Nc1n[nH]c2c(C)c(F)c(C3C(C#N)=C(C)N(C)C(C)=C3C#N)cc12` [BAY-3827] gave a Ki [17] of 0.222 µM.
With `N#Cc1cccc(-c2c[nH]c3ncnc(N4CCOCC4)c23)c1` the % of control [18] was 97% and the % of control [19] was 87%.
With `CNC(=O)Nc1ccc(-c2nc(N3CC4CCC(C3)O4)c3cnn(C4CCC5(CC4)OCCO5)c3n2)cc1` the % of control [20] was 86%.
For `O=C(NOC[C@H](O)CO)c1ccc(F)c(F)c1Nc1ccc(I)cc1F`, the % of control [21] was 100% and the % of control [22] was 69%.
